The results in this text go back to US20190125826A1, “METHODS AND PHARMACEUTICAL COMPOSITION FOR THE TREATMENT OF INFLAMMATORY SKIN DISEASES ASSOCIATED WITH DESMOGLEIN-1 DEFICIENCY” (INSERM (INSTITUT NATIONAL DE LA SANTÉ ET DE LA MÉDICALE), priority 2016, published 2019).

This assay concerns the target T1, IKK-2 (Homo sapiens, UniProt O14920).
T1 construct: endogenous in cells; host or cells: primary keratinocytes from a healthy control and from Patient#1
T1 sequence (O14920 1-756): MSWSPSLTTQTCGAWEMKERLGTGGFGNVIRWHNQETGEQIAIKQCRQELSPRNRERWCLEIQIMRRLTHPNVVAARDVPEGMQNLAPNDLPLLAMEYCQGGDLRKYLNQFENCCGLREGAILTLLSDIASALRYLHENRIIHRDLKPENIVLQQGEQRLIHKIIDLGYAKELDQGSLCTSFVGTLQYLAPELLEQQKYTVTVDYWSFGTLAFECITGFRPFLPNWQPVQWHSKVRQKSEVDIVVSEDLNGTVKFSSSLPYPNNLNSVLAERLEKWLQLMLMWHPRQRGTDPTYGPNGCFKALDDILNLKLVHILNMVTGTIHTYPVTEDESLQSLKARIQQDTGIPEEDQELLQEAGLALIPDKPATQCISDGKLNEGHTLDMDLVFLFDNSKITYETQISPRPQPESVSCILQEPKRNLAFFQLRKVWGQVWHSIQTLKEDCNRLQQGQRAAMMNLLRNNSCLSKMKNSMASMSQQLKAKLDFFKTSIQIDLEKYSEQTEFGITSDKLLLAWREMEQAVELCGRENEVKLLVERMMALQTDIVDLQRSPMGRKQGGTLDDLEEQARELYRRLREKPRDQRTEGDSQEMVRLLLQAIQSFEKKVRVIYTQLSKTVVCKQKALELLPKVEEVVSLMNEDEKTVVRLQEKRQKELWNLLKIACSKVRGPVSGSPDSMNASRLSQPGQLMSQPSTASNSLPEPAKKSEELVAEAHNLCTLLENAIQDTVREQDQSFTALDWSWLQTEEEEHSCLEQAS
Kind of assay: Inhibition of IKK-2 by ML120B in keratinocytes (IL8 mRNA by RT-qPCR). In kind it is cell-based. The conditions noted are these: Patient#1 keratinocytes; ML120B 20 μM preincubated 1 h, then 10 ng/ml IL-1β, 24 h. On the procedure:
Total RNAs were isolated from cultured keratinocytes, HEK293T cells and frozen skin biopsies from the two patients and controls using the RNeasy Plus Minikit (Qiagen GmbH, Hilden, Germany), according to the manufacturer's instructions. RNA samples were reverse-transcribed into cDNA using the High Capacity cDNA Reverse Transcriptase Kit (Applied Biosystems, Foster City, Calif., USA). Real-time PCR was carried out using the Fast SYBR Green PCR Master Mix (PE Applied Biosystems) on an ABI prism 7000 (PE Applied Biosystems). RT-qPCR primers were designed using the sequences available in Ensembl and spanned an intron-exon boundary. The amounts of the various mRNAs were normalized against the amount of beta actin RNA measured by RT-qPCR in each sample. The results were analyzed with DataAssist® (version 3.01, Applied Biosystems), which uses the comparative Ct (ddCt) method.
Keratinocytes from a healthy control and from Patient#1 were seeded into 12-well plates (100 000 cells/well). 24 hours later, keratinocytes were preincubated with ML120B 20 μM at 37° C. for 1 h and then stimulated with 10 ng/ml IL-1β. 24 hours after the stimulation, the cells were pelleted for RNA extraction. ML120B was sent as a gift by Emmanuel Laplantine (Institut Pasteur, Paris, France).
In general terms: In qPCR the cycle at which signal appears reflects the starting amount.

In the case of `COc1c(Cl)cc2c([nH]c3cnccc32)c1NC(=O)c1cccnc1C` [ML120B], the “production of IL8” value is “restored the normal production of IL8”.
